{"source": "paper PMC5520056", "about": "“Cryo-EM structures of the ATP-bound Vps4^E233Q hexamer and its complex with Vta1 at near-atomic resolution” (Nature Communications, 2017)", "target": "T1, Vps4–Vta1 complex (Saccharomyces cerevisiae, UniProt P52917)", "T1 construct": "both proteins with N-terminal His6 tag (pET28a), E. coli BL21(DE3); Vps4 hexamer with Vta1 at ~2:1 Vta1/Vps4; four Vta1 CTD dimers modelled; with Vacuolar protein sorting-associated protein VTA1", "T1 sequence (P52917 1-437 E233Q)": "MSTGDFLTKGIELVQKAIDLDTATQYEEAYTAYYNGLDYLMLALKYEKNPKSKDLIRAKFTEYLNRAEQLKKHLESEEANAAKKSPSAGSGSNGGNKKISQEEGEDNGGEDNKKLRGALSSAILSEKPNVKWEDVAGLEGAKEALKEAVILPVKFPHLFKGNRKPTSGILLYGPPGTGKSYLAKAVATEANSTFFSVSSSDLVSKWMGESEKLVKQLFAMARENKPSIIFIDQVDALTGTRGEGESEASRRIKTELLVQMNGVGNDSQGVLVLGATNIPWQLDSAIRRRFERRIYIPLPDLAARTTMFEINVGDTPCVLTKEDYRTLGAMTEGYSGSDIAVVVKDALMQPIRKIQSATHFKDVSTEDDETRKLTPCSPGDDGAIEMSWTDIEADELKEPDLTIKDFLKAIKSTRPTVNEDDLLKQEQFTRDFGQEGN", "T1 sequence (Q06263 1-330 partner)": "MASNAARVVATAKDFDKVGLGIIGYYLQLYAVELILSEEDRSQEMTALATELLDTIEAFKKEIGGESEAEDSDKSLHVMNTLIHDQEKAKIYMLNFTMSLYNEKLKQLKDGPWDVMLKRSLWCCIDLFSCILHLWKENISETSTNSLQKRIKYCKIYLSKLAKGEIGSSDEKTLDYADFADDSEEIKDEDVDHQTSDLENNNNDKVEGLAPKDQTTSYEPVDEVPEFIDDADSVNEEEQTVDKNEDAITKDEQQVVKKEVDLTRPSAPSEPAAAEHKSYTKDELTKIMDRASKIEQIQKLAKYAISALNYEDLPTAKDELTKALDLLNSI", "assay": "malachite green phosphate release (ATPase)", "type": "biochemical", "settings": "1 uM Vps4, 5 mM ATP, 2 mM MgCl2, pH 7.5, 37 °C; Vta1 present", "data": [{"smiles": "Nc1ncnc2c1ncn2[C@@H]1O[C@H](COP(=O)(O)OP(=O)(O)OP(=O)(O)O)[C@@H](O)[C@H]1O", "note": "[ATP]", "values": [{"measurement": "malachite green phosphate release (ATPase)", "value": "the ATPase activity of the wild-type Vps4 was increased by twofold in the presence of Vta1"}]}]}
